Assay results reported in patent US20220265655A1, “METHODS OF TREATING INFLAMMATORY DISEASES” (Ribon Therapeutics, Inc., priority 2021, published 2022).

Tests used:
[1] = system: DNCB-induced atopic dermatitis model; assay: DNCB-induced atopic dermatitis model (Example D)
[2] = system: IMQ-induced psoriasis model; assay: Imiquimod (IMQ)-induced psoriasis model (Example E)
[3] = system: Alternaria sensitized mice challenged with Alternaria; conditions: Compound 2 500 mg/kg b.i.d., Compound 1 500 mg/kg with 1-ABT 25 mg/kg b.i.d.
[4] = system: BLM-induced pulmonary fibrosis model
Protocol: BLM-induced pulmonary fibrosis is an established disease model for IPF. In the model, alveolar injury and interstitial inflammation/fibrosis are induced by intracheal BLM administration.
Formulations (50 μL/vial) were kept for dose verification on the first and last dosing day (2 vials each, total 4 vials).
At Day 0, 40 mice were induced to develop pulmonary fibrosis by a single intratracheal administration of bleomycin hydrochloride (BLM, Nippon Kayaku, Japan) in PBS at a dose of 3.0 mg/kg, in a volume of 50 μL per animal using Microsprayer® (Penn-Century, USA) under a mixture of medetomidine (0.75 mg/kg), midazolam (4 mg/kg) and butorphanol (5 mg/kg) anesthesia by intraperitoneal administration in a volume of 10 mL/kg. […] Five mice were intratracheally administered PBS, instead of the BLM, which served as the Sham group.
Tofacitinib was administered orally at a dose of 50 mg/kg in a volume of 10 mL/kg twice daily (total of 100 mg/kg/day).
The viability, clinical signs and behavior were monitored daily. Body weight was recorded daily from Day 0. Dosing volume was adjusted based on the latest body weight. […] The animals were sacrificed on Day 14 by exsanguination through the abdominal vena cava under a mixture of medetomidine, midazolam and butorphanol anesthesia. The time of the dosing and termination was recorded. The left and post-caval lobe weight for all mice were recorded.
For Group 2-4, BALF samples were collected by flushing the lung via the trachea with sterile PBS three times (1st BALF, 2nd BALF and 3rd BALF, 0.8 mL each) at sacrifice under a mixture of medetomidine, midazolam and butorphanol anesthesia. The 1st BALF was centrifuged at 3,000×g for 5 min at 4° C. and the supernatant was collected and stored at −80° C. The cell pellet from the first fraction (1st BALF) was resuspended and added to the remaining fractions of lavage fluid (2nd and 3rd BALF). The total BALF was centrifuged at 1,000×g for 5 min at 4° C. and the supernatant was removed. Ammonium-Chloride-Potassium (ACK) lysing buffer was added to the pellet and washed for lysis of erythrocytes. After addition of cold PBS, the fluid was centrifuged at 1,000×g for 3 min at 4° C. and the supernatant was removed. Resuspended in PBS and total cell number of BALF was counted using a hemocytometer (C-Chip disposable hemocytometer, Digital Bio). After counting the total cells, the cell suspension was re-suspended in PBS to 5×10^5 cells/mL. A smear sample was then prepared by spotting 100 μL of cell suspension onto slides, and air-dried using a dryer on cool setting.
Indwelling needle was inserted into trachea and connected to instillation route of syringe. The syringe was loaded with 10% neutral buffered formalin and kept at the height of 20 cm. […] The three unfixed lobes were washed with cold saline and measured wet weight.
To quantify lung hydroxyproline content, frozen left lung samples were processed by an acid hydrolysis method as follows. […] AC buffer (2.2M acetic acid/0.48M citric acid, 200 μL) was added to the samples, followed by centrifugation to collect the supernatant. […] The samples were then mixed with Ehrlich's solution (300 μL) and heated at 65° C. for 20 minutes to develop the color. After samples were cooled on ice and centrifuged to remove precipitates, the optical density of each supernatant was measured at 560 nm. The concentrations of hydroxyproline were calculated from the hydroxyproline standard curve. Lung hydroxyproline levels were expressed as […] per left lung.
For Group 2-4, BALF IL-4, IL-6, IL-10 and IL-17 levels were quantified by Quantikine enzyme linked immunosorbent assay kits (code. M4000B for IL-4, code. M6000B for IL-6, code. M1000B for IL-10, code. M1700 for IL-17, R&D systems) according to manufacturer instructions.
For Masson's Trichrome staining, the sections were deparaffinized and rehydrated, followed by re-fixation with Bouin's solution for 15 min.

[5] = system: OXZ-induced colitis mouse model; conditions: Compound 1 1,000 mg/kg PO BID; tofacitinib 10 mg/kg PO BID
[6] = ratio (percentage) of BALF cells, mean ± SD

For `C[C@@H]1C[C@H]2[C@@H]3CCC4=CC(=O)C=C[C@]4(C)[C@@]3(F)[C@@H](O)C[C@]2(C)[C@@]1(O)C(=O)CO` [DEX, Dexamethasone], the “inhibition rate of clinical scoring (AUC of total clinical score) compared to vehicle” value ([1]; Compound 1 500 mg/kg PO BID, DEX ointment 70 mg topical QD, P<0.0001) was 43.5%, the “total clinical score, peak / high values” ([1]; Compound 1: peak on Day 17, DEX: high clinical scores, vehicle peak 11.9 on Day 17) was 6-7 and the bodyweight ([1]; monitored daily, Compound 1 500 mg/kg PO BID, DEX ointment topical QD) was “caused decreases in bodyweight”. For the same compound, the “inhibition rate of clinical scoring (AUC of total clinical score)” value ([2]; Compound 1 500 mg/kg PO BID (P<0.001), DEX ointment 70 mg topical QD (P<0.0001)) was 87.7% and the bodyweight ([2]; monitored daily, consecutive IMQ treatment and dosing) was “caused decreases in bodyweight”.
In the case of `O=c1[nH]c(CS[C@H]2CC[C@H](O)CC2)nc2cc(OCC3CC3)cc(F)c12` [Compound 2, 7-(Cyclopropylmethoxy)-5-fluoro-2-(((trans-4-hydroxycyclohexyl)thio)methyl)quinazolin-4(3H)-one], the “IgE blood serum levels” value [3] is reported as “reduced”, the “levels of IL4, IL-5, IL-13, and IL-33 in BAL fluid” value [3] is reported as “reduced” and the “levels of IL4, IL-5, IL-13, and IL-33 in lung tissue” value [3] is reported as “reduced”. For the same compound, the “levels of eosinophils in BAL fluid” value [3] was “reduced”, the “levels of neutrophils in BAL fluid” value [3] was “reduced” and the “airway mucus in lung tissue” value ([3]; days 19-25) was “reduced”.
With `C[C@@H]1CCN(C(=O)CC#N)C[C@@H]1N(C)c1ncnc2[nH]ccc12` [Tofacitinib free base, Tofacitinib] the “mean body weight changes (% of Day 0) compared with Vehicle group” value ([4]; Compound 1 500 mg/kg PO BID, Tofacitinib free base 50 mg/kg PO BID, Day 1-14) was “significantly higher than that of the Vehicle group from Day 6 to Day 14”, the “Left lung weight” value ([4]; Day 14, mean ± SD) was 101 ± 9 mg and the Post-caval lobe weight ([4]; Day 14, mean ± SD) was 27 ± 4. For the same compound, the “Right inferior lobe weight” value ([4]; Day 14, mean ± SD) was 84 ± 14, the Ashcroft score ([4]; Masson's trichrome-stained lung sections, mean ± SD) was 2.2 ± 1.2 and the “mice found dead during the treatment period” value ([4]; before reaching Day 14) was “no dead animals”. For the same compound, the “bodyweight” value ([4]; day of sacrifice (Day 14), mean ± SD) was 18.1 ± 1.7 g, the “BALF IL-6” value ([4]; mean ± SD) was 4.4 ± 5.5 pg/mL and the “Lung hydroxyproline (μg/left lung)” value ([4]; mean ± SD) was 49.3 ± 8.3 μg/left lung. For the same compound, the “Total cells (×10^4) in BALF” value ([4]; mean ± SD) was 83.8 ± 50.0 ×10^4, the “BALF IL-10” value ([4]; mean ± SD, Compound 1 (n = 6), Tofacitinib free base (n = 1)) was 2.9 pg/mL and the “mean body weight on the day of sacrifice compared with the Vehicle group” value ([4]; mouse, in vivo) was “increasing trend”. For the same compound, the “mean right inferior lobe weight compared with the Vehicle group” value ([4]; mouse, in vivo) was “significant decreases”, the “total number of cells in BALF compared with the Vehicle group” value ([4]; mouse, in vivo) was “no significant difference” and the “Eosinophil in BALF” value ([4]; ratio (percentage) of BALF cells) was 0.0. For the same compound, the “Lymphocyte in BALF” value [4, 6] was 11.7 ± 14.5, the “Monocyte in BALF” value [4, 6] was 88.0 ± 15.2 and the “Neutrophil in BALF” value [4, 6] was 0.3 ± 0.9. For the same compound, the “AUC of body weight change, difference to vehicle group” value [5] was “a statistical difference was not seen”, the “AUC of the DAI score in comparison to vehicle” value [5] was “suppressed” and the “DAI score in comparison to vehicle treated mice” value [5] was “suppressed”. For the same compound, the “body weight loss compared with vehicle group” value [5] was “suppressed”, the “colon density (increase induced by OXZ)” value [5] was “also suppressed” and the “colon histology (H&E staining) compared to the vehicle group” value [5] was “appeared similar to the sham group”. For the same compound, the “colon length (reduction induced by OXZ)” value [5] was “also suppressed”, the “colon weight (increase induced by OXZ)” value [5] was “also suppressed” and the “pathological score of colitis severity in comparison to the vehicle control group” value [5] was “increased integrity of the crypt structure, less inflammatory cell infiltration, reduced muscle thickening and less crypt abscess”.
